Six compounds from patent US7244614B2, “Fusion proteins and assays for molecular binding” (Cellomics, Inc., priority 2001, dated 2007) can be followed below.

Holding throughout (format): cell-based
In assay [1] the test system is MAPK. Put plainly: MAPK binding fusion protein (first variant, mutated n-myc NLS) redistribution in transfected HeLa cells, ArrayScan II. The conditions noted are these: for change in localization of the fusion protein to the cytoplasm upon activation: serum starved 24 h, PMA 1.5 nM or sorbitol 200 mM, 1 hour; for inhibition of the change in distribution of the fusion protein: 2 hours pretreatment with 10 uM inhibitor, then PMA. An excerpt: In this example, a fusion protein for detecting the availability for specific binding of MAPK, the protein of interest, is based on the distribution of the fusion protein between the cytoplasm and nucleus. It is constructed such that the detection domain is a GFP, the first localization sequence is a mutated NLS from n-myc, the second localization sequence is an NES from MAPKAP2, and the binding domain is the MAPK binding domain from RSK-1. The NLS and MAPK binding domain are separated by 2 amino acids. Operationally, the binding of MAPK to the binding domain blocks the localization of this fusion protein into the nucleus. […] Contacting the cell with a compound that activates MAPK, such as PMA or serum, will activate MAPK by inducing a dissociation of MAPK from MEK1, thus making MAPK available for binding to the RSK-1 binding domain in the fusion protein, and will shift the distribution of the fusion protein from the nucleus to the cytoplasm.
As shown below, this fusion protein was constructed using a GFP, a mutated nuclear localization signal from n-myc, based on human n-myc (Genbank accession number Y00664), the sequence from Proline 315 to Alanine 361 of MAPKAP2 (Genbank accession number X76850), which includes a nuclear export signal (between D^328 to E^351, SEQ ID NO:317), and the MAPK binding domain from RSK1 spanning from S^718 to T^733 (Genbank accession number L07597).
(§1) Protocol: HeLa cells were transiently transfected with the fusion protein. Cells were serum starved for 24 hours prior to treatment. Cells were then exposed to PMA (1.5 nM) or sorbitol (200 mM) for 1 hour. For inhibitor treatment, cells were pretreated for 2 hours with 10 uM inhibitor, and then treated with PMA, in parallel with non-inhibitor-treated cells. Cells were then treated with 3.7% formaldehyde & Hoechst 33342 for 20 minutes to fix and stain the nuclei, and then washed. Data was collected on ArrayScan II® (Cellomics, Inc. Pittsburgh, Pa.). […] Most, if not all, of the fusion protein was affected. The change in distribution was inhibitable by pretreatment of 10 uM PD98059, a specific inhibitor of MAPK activation, but not by SB203580, a specific inhibitor of p38 MAPK activation. Second Variant Protocol: HeLa cells were transiently transfected with the fusion protein. Cells were serum starved for 24 hours prior to treatment. Cells were exposed to serum (20%) or PMA (200 nM) for 2 hours. Cells were then treated with 3.7% formaldehyde & Hoechst 33342 for 20 minutes to fix and stain the nuclei, and then washed. Data was collected on ArrayScan II® (Cellomics, Inc. Pittsburgh, Pa.).

Assay [2] concerns c-Jun N-terminal kinase (JNK). Put plainly: c-Jun N-terminal protein kinase fusion protein redistribution in transfected HeLa cells, ArrayScan II. The settings on record: for change in localization of the fusion protein to the cytoplasm upon activation: serum starved 24 h, anisomycin 500 nM, sorbitol 300 mM, TNF 100 ng/ml or staurosporine 1 uM, 1 hour. An excerpt: It is constructed such that the detection domain is a GFP, the first localization domain is a modified SV40 T antigen NLS, the second localization domain is an NES from MAPKAP2, and the binding domain is the JNK binding domain from c-jun. […] This example illustrates the detection and monitoring of a binding event induced to occur within the cell.
As shown below, this fusion protein was constructed using GFP, a modified nuclear localization signal from SV40 T antigen, the sequence from Proline 315 to Serine 362 of MAPKAP2 (Genbank accession number X76850), which includes a nuclear export signal (between D^328 to E^351, SEQ ID NO:317), and the sequence from P^30 to L^60 of c-Jun,(accession number J04111), which serves as the JNK binding domain.
Protocol: HeLa cells were transiently transfected with the fusion protein. Cells were serum starved for 24 hours prior to treatment. Cells were exposed to test compounds known to induce cell stress, including anisomycin (500 nM), sorbitol (300 mM), TNF (tumor necrosis factor, 100 ng/ml), or staurosporine (1 uM), for 1 hour. For inhibitor treatment, cells were pretreated for 2 hours with 10 uM inhibitor then treated with anisomycin, in parallel with non-inhibitor-treated cells. Cells were then treated with 3.7% formaldehyde & Hoechst 33342 for 20 minutes to fix and stain the nuclei, and then washed. Data was collected on ArrayScan II® (Cellomics, Inc. Pittsburgh, Pa.).

In assay [3] the test system is catalytic domain of cAMP-dependent protein kinase (cPKA). Put plainly: cAMP-dependent protein kinase interaction fusion protein redistribution (nucleus/cytoplasm) in transfected HeLa cells, ArrayScan II. The settings on record: serum starved 24 h, forskolin 2 h or PMA 1 h. An excerpt:
In this example, a fusion protein for detecting the availability for specific binding of the catalytic domain of cAMP-dependent protein kinase (cPKA), the protein of interest, is based on the distribution of the fusion protein between the cytoplasm and nucleus. It is constructed such that the detection domain is a GFP, the first localization domain is the NLS from SV40 large T-antigen, the second localization domain is the NES from MAPKAP2, and the binding domain is from CREB. The NLS and the binding domain are separated by 2 amino acids. The fusion protein is introduced into cells via DNA transfection or retrovirus infection. The catalytic domain cPKA binds to the regulatory domain of PKA (rPKA) in the absence of cAMP. With an increase in the concentration of cAMP, cPKA dissociates from rPKA, enabling cPKA to bind to the fusion protein. Operationally, the binding of cPKA to the binding domain blocks the localization of this fusion protein into the nucleus. […] The ratio of these intensities can be readily measured. This fusion protein can detect cPKA binding in either the nucleus or cytoplasm. Contacting the cell with a compound that causes a separation of cPKA from rPKA, such as forskolin, via an increase cAMP, will shift the distribution of the fusion protein from the nucleus to the cytoplasm. […]

For assay [4], the system named is MAPK. Put plainly: MAPK binding fusion protein (second variant, SV40 NLS) redistribution in transfected HeLa cells, ArrayScan II. The conditions noted are these: serum starved 24 h, serum 20% or PMA 200 nM, 2 hours. As for the experimental part: A variant of this MAPK binding fusion protein was also prepared. This fusion protein was constructed using a GFP, a nuclear localization signal from the SV 40 large T antigen (SEQ ID NO:145, Genbank accession number J02400), specifically P^126 to V^132, the sequence from Glutamic Acid 327 to Isoleucine 353 of MAPKAP2 (Genbank accession number X76850), which includes a nuclear export signal (between D^328 to E^351, SEQ ID NO:317), and the MAPK binding domain from RSK1, spanning from S^718 to T^733 (Genbank accession number L07597).
as §1, with “Second Variant Protocol: HeLa cells were transiently transfected with the fusion protein. Cells were serum starved for 24 hours prior to treatment. Cells were exposed to serum (20%) or PMA (200 nM) for 2 hours. Cells were then treated with 3.7% formaldehyde & Hoechst 33342 for 20 minutes to fix and stain the nuclei, and then washed. Data was collected on ArrayScan II® (Cellomics, Inc. Pittsburgh, Pa.).” left out

Regarding `OC[C@@H](O)[C@@H](O)[C@H](O)[C@@H](O)CO` [sorbitol], the “change in localization of the fusion protein to the cytoplasm upon activation” value (from here on “change in localization”) in the assay with MAPK [1] is “did not induce a change in the localization of the fusion protein”.
With `C[S+]([O-])c1ccc(-c2nc(-c3ccncc3)c(-c3ccc(F)cc3)[nH]2)cc1` (stereo not drawn) [SB203580], in assay [2] (2 hours pretreatment with 10 uM inhibitor, then anisomycin), the “effect of inhibitor pretreatment on the change in distribution of the fusion protein” value is “not affected”. Besides, the “inhibition of the change in distribution of the fusion protein” value with MAPK [1] is listed as “not”.
For `COc1cccc(-c2cc(=O)c3ccccc3o2)c1N` [PD98059], in the assay with MAPK [1], the “inhibition of the change in distribution of the fusion protein” value was “inhibitable”.
Turning to `COc1ccc(C[C@H]2NC[C@H](O)[C@H]2OC(C)=O)cc1` [anisomycin], the “change in localization” value in assay [2] was “led to a change in localization of the fusion protein to the cytoplasm”.
Still for that read-out and setting: under `CN[C@@H]1C[C@H]2O[C@@](C)([C@@H]1OC)n1c3ccccc3c3c4c(c5c6ccccc6n2c5c31)C(=O)NC4` [staurosporine] stands “led to a change in localization of the fusion protein to the cytoplasm”.
As to `CCCCCCCCCCCCCC(=O)O[C@@H]1[C@@H](C)[C@@]2(O)[C@@H](C=C(CO)C[C@]3(O)C(=O)C(C)=C[C@@H]23)[C@@H]2C(C)(C)[C@]12OC(C)=O` [PMA, Phorbol-12-Myristate-13-Acetate], the “change in localization” value (in the assay with MAPK [1]; in assay [3]; in the assay on MAPK [4]) was “led to a change in localization of the fusion protein to the cytoplasm” each time.
